Laboratory results taken from patent US20090270394A1, “CYCLYLAMINE DERIVATIVES AS CALCIUM CHANNEL BLOCKERS” (priority 2008, published 2009).

Target: T1, Human Cav2.2 channels (Homo sapiens, UniProt Q00975)
T1 construct: expressed in transfected cells
Assay: Fluorescent assay for Cav2.2 channels using potassium depolarization to initiate channel opening
Format: cell-based
Conditions: for inhibition at 10 µM: 10 μM compound, read-out: Cav 2.2 Activity % Inh at 10 μM; for inhibition at 30 µM: 30 μM compound, read-out: Cav 2.2 Activity % Inh at 30 μM; for IC50: 30 mM K (block of open and inactivated channels), read-out: Cav 2.2 Activity IC50 at 30 mM K
Procedure, shortened: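 HEK293 cells stably expressing human Cav2.2 with alpha2-delta and beta subunits plus Kir2.3, dye-loaded, then held 30 min at 25° C. in 4, 12, 25 or 30 mM K+ pre-polarization buffer with compound.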

T1 sequence (Q00975 whole entry): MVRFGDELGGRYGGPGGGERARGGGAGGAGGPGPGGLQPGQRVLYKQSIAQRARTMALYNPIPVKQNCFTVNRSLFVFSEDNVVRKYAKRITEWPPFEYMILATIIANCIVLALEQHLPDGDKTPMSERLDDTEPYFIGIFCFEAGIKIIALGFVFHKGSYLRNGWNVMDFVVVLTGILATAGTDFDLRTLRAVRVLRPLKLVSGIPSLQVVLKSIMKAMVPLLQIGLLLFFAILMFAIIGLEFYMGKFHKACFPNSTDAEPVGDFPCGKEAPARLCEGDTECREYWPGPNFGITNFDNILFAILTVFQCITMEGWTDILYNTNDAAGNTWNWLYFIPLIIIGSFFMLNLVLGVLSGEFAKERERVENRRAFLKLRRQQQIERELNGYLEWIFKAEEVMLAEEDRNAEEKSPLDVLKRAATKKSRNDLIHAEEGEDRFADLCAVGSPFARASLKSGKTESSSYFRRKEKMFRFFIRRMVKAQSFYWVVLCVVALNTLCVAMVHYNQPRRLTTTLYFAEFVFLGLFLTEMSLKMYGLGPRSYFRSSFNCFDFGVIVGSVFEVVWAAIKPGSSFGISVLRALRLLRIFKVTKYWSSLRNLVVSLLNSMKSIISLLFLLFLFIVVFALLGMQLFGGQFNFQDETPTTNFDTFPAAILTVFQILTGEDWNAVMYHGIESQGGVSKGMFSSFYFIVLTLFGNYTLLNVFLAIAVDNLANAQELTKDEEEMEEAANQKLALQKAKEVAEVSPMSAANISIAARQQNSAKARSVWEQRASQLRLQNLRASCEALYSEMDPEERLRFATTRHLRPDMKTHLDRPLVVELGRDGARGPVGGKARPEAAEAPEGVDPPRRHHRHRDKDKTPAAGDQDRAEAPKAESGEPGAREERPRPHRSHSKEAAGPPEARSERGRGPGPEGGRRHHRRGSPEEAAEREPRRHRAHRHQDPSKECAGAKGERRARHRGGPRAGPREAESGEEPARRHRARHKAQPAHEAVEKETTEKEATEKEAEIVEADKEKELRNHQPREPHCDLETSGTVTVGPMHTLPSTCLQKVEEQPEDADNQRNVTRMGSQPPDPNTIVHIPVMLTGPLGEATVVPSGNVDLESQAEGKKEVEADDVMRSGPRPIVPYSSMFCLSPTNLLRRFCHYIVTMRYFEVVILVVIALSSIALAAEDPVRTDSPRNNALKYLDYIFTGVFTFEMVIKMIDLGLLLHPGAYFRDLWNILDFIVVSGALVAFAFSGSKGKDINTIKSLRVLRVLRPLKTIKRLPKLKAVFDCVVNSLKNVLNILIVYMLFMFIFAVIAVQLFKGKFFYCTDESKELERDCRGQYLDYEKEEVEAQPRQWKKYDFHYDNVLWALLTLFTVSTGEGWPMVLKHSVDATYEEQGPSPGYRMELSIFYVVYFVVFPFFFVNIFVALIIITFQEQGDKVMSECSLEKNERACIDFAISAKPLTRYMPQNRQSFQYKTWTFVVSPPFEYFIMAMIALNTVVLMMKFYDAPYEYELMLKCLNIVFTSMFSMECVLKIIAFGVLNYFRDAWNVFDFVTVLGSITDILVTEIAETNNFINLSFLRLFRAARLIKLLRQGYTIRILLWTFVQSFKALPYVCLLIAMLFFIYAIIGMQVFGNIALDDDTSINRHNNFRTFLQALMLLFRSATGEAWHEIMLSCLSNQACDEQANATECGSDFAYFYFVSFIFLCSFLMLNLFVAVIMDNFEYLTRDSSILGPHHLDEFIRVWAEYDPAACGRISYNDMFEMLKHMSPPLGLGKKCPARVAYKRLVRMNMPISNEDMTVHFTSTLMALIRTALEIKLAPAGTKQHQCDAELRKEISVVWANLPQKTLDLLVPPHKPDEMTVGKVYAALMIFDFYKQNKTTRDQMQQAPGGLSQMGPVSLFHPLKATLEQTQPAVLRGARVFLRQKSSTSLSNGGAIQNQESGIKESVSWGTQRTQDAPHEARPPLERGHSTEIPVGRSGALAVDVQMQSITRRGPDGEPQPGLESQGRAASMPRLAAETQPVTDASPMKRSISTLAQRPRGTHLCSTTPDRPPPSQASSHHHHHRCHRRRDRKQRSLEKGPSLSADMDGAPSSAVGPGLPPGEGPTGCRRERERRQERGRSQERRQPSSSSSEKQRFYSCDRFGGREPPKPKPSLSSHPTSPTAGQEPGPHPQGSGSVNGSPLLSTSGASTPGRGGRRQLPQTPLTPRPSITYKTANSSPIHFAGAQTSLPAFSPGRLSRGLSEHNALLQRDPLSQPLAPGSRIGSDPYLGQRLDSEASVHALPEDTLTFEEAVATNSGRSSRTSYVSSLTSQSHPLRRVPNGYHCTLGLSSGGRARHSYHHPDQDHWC
T1 sequence (P54289 25-1103 partner): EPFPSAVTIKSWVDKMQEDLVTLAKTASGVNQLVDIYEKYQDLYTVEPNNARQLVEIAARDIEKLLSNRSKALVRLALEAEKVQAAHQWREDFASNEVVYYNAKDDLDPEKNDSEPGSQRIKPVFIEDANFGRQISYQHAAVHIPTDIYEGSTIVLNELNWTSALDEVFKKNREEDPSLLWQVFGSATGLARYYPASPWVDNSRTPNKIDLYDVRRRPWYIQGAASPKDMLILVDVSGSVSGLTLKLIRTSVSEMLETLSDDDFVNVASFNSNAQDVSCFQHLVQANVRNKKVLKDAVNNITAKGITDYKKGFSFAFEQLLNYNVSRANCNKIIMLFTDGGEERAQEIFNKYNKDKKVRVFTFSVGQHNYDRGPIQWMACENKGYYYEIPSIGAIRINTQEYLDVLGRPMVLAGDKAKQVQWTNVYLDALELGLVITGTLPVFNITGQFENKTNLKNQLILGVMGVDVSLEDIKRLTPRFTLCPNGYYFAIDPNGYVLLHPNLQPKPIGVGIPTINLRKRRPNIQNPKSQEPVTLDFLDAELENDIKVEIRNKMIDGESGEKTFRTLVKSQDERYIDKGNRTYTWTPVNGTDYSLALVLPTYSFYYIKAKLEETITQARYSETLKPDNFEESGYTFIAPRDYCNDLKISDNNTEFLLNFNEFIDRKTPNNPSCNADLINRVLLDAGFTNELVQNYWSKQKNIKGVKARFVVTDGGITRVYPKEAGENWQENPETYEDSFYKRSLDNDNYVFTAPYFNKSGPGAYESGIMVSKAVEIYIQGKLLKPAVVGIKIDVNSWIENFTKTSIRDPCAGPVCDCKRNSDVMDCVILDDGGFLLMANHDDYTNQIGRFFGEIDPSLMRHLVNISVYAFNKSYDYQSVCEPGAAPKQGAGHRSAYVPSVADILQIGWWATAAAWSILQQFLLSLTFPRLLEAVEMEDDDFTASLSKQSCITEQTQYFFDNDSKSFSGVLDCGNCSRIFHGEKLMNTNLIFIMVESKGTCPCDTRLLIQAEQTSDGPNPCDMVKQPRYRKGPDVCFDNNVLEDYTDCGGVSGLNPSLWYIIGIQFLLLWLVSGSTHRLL
T1 sequence (P54284 whole entry partner): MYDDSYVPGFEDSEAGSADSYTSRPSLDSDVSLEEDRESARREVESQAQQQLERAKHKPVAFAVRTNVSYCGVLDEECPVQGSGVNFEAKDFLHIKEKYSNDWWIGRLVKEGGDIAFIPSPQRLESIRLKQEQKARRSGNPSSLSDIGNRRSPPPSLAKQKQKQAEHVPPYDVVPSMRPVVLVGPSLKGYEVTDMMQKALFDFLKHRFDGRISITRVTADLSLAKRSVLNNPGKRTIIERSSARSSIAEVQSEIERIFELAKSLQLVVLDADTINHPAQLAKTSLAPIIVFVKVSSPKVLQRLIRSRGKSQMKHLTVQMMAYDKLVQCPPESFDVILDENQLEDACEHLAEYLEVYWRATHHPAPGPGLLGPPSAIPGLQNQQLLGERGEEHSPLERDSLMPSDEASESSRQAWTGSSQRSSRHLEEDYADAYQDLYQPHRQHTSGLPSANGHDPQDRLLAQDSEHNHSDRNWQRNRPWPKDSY

SMILES | inhibition at 10 µM [%] | inhibition at 30 µM [%] | IC50 [µM]
COc1ccc(CNC(=O)C2(NC(=O)c3cc(C(C)(C)C)c(OC)c(C(C)(C)C)c3)CCCCC2)cc1 [Compound 31, 3,5-di-tert-butyl-4-methoxy-N-(1-(4-methoxybenzylcarbamoyl)cyclohexyl)benzamide] | 87.5 | 105 | 0.0026
CC(C)(C)c1cc(C(=O)NC2(C(=O)NCc3ccccc3)CCCCC2)cc(C(C)(C)C)c1 [Compound 44, N-(1-(benzylcarbamoyl)cyclohexyl)-3,5-di-tert-butylbenzamide] | 92.5 | 97.3 | 0.0604
COc1ccc(C(=O)NC2(C(=O)NCc3cccc(C(F)(F)F)c3)CCCCC2)cc1C(C)(C)C#N [Compound 118, 3-(2-cyanopropan-2-yl)-4-methoxy-N-(1-(3-(trifluoromethyl)benzylcarbamoyl)cyclohexyl)benzamide] | 75.4 | 77.6 | 0.388
COc1c(C(C)(C)C)cc(C(=O)NC2(C(=O)NCc3nccs3)CCCCC2)cc1C(C)(C)C [Compound 87, 3,5-di-tert-butyl-4-methoxy-N-(1-(thiazol-2-ylmethylcarbamoyl)cyclohexyl)benzamide] | 102 | 104 | 0.00604
CC(C)(C)c1cc(C(=O)NC2(C(=O)NCc3ccc(F)cc3F)CCCCC2)cc(C(C)(C)C)c1 [Compound 50, 3,5-di-tert-butyl-N-(1-(2,4-difluorobenzylcarbamoyl)cyclohexyl)benzamide] | 99.6 | 102 | 0.0803
COc1c(C(C)(C)C)cc(C(=O)NC2(C(=O)NCc3cc(C)on3)CCCCC2)cc1C(C)(C)C [Compound 86, 3,5-di-tert-butyl-4-methoxy-N-(1-((5-methylisoxazol-3-yl)methylcarbamoyl)cyclohexyl)benzamide] | 99.1 | 104 | 0.00957
COc1c(C(C)(C)C)cc(C(=O)NC2(C(=O)NCCCN3CCOCC3)CCCCC2)cc1C(C)(C)C [Compound 105, 3,5-di-tert-butyl-4-methoxy-N-(1-(3-morpholinopropylcarbamoyl)cyclohexyl)benzamide] |  |  | 0.704
COc1c(C(C)(C)C)cc(C(=O)NC2(C(=O)NCc3cc(C)n(C)n3)CCCCC2)cc1C(C)(C)C [Compound 85, 3,5-di-tert-butyl-N-(1-((1,5-dimethyl-1H-pyrazol-3-yl)methylcarbamoyl)cyclohexyl)-4-methoxybenzamide] | 87.7 | 93.2 | 0.0267
COc1ccc(CNC(=O)C2(NC(=O)c3cc(C(C)(C)C)c(OC)c(C(C)(C)C)c3)CCCC2)cc1 [Compound 38, 3,5-di-tert-butyl-4-methoxy-N-(1-(4-methoxybenzylcarbamoyl)cyclopentyl)benzamide] | 97.8 | 99 | 0.0359
N#CCc1cc(CC#N)cc(C(=O)NC2(C(=O)NCc3cccc(C(F)(F)F)c3)CCCCC2)c1 [Compound 61, 3,5-bis(cyanomethyl)-N-(1-(3-(trifluoromethyl)benzylcarbamoyl)cyclohexyl)benzamide] | 18.7 | 56.4 | 
Cc1cc(CNC(=O)C2(NC(=O)c3cc(C(C)(C)C)nc(C(C)(C)C)c3)CCCCC2)nn1C [Compound 78, 2,6-di-tert-butyl-N-(1-((1,5-dimethyl-1H-pyrazol-3-yl)methylcarbamoyl)cyclohexyl)isonicotinamide] | 79.5 | 88.6 | 0.0245
COc1c(C(C)(C)C)cc(CNC2(C(=O)NCc3ccccc3)CCCCC2)cc1C(C)(C)C [Compound 72, N-benzyl-1-(3,5-di-tert-butyl-4-methoxybenzylamino)cyclohexanecarboxamide] | 97.8 | 97.4 | 0.145
Cc1cnc(CNC(=O)C2(NC(=O)c3cc(C(C)(C)C)c(O)c(C(C)(C)C)c3)CC2)cn1 [Compound 3, 3,5-di-tert-butyl-4-hydroxy-N-(1-((5-methylpyrazin-2-yl)methylcarbamoyl)cyclopropyl)benzamide] | 89.8 | 98.8 | 1.62
COc1c(C(C)(C)C)cc(C(=O)NC2(C(=O)NCc3ccc(N(C)C)cc3)CCCCC2)cc1C(C)(C)C [Compound 84, 3,5-di-tert-butyl-N-(1-(4-(dimethylamino)benzylcarbamoyl)cyclohexyl)-4-methoxybenzamide] | 25.6 | 53.5 | 
CC(C)(C)c1cc(C(=O)NC2(C(=O)NCc3cccc(C(F)(F)F)c3)Cc3ccccc3C2)cc(C(C)(C)C)n1 [Compound 54, 2,6-di-tert-butyl-N-(2-(3-(trifluoromethyl)benzylcarbamoyl)-2,3-dihydro-1H-inden-2-yl)isonicotinamide] | 46.2 | 68.4 | 
CC(C)(C)c1cc(C(=O)NC2(C(=O)NCc3ccccn3)CC2)cc(C(C)(C)C)n1 [Compound 21, 2,6-di-tert-butyl-N-(1-(pyridin-2-ylmethylcarbamoyl)cyclopropyl)isonicotinamide] | 97.1 |  | 0.143
CC(C)(C)c1cc(C(=O)NC2(C(=O)NCc3nccs3)CCCCC2)cc(C(C)(C)C)c1O [Compound 13, 3,5-di-tert-butyl-4-hydroxy-N-(1-(thiazol-2-ylmethylcarbamoyl)cyclohexyl)benzamide] | 96.9 | 99.8 | 0.0341
CC(C)(C)NC(=O)C(C)(C)c1cc(C(=O)NC2(C(=O)NCc3cccc(C(F)(F)F)c3)CCCCC2)cc(C(C)(C)C(=O)NC(C)(C)C)c1 [Compound 76, 2,2′-(5-(1-(3-(trifluoromethyl)benzylcarbamoyl)cyclohexylcarbamoyl)-1,3-phenylene)bis(N-tert-butyl-2-methylpropanamide)] | 80.5 | 87.8 | 
Cc1cc(CNC(=O)C2(NC(=O)c3cc(C(C)(C)C)c(O)c(C(C)(C)C)c3)CC2)no1 [Compound 116, 3,5-di-tert-butyl-4-hydroxy-N-(1-((5-methylisoxazol-3-yl)methylcarbamoyl)cyclopropyl)benzamide] | 92.5 | 98 | 0.943
CC(C)(C)c1cc(C(=O)NC2(C(=O)NCc3cccc(C(F)(F)F)c3)Cc3ccccc3C2)cc(C(C)(C)C)c1 [Compound 53, 2-(3,5-di-tert-butylbenzamido)-N-(3-(trifluoromethyl)benzyl)-2,3-dihydro-1H-indene-2-carboxamide] | 56.3 | 74.3 | 
Cc1cnc(CNC(=O)C2(NC(=O)c3cc(C(C)(C)C)c(O)c(C(C)(C)C)c3)CCCCC2)cn1 [Compound 5, 3,5-di-tert-butyl-4-hydroxy-N-(1-((5-methylpyrazin-2-yl)methylcarbamoyl)cyclohexyl)benzamide] | 94.6 | 96.4 | 0.127
Cc1cnc(CNC(=O)C2(NC(=O)c3cc(C(C)(C)C)nc(C(C)(C)C)c3)CCCC2)cn1 [Compound 91, 2,6-di-tert-butyl-N-(1-((5-methylpyrazin-2-yl)methylcarbamoyl)cyclopentyl)isonicotinamide] | 95.3 | 96.1 | 0.148
CN(C)Cc1ccc(CNC(=O)C2(NC(=O)c3cc(C(C)(C)C)nc(C(C)(C)C)c3)CCOCC2)cc1 [Compound 23, 2,6-di-tert-butyl-N-(4-(4-((dimethylamino)methyl)benzylcarbamoyl)tetrahydro-2H-pyran-4-yl)isonicotinamide] | 87.4 |  | 
CC(C)(C)c1cc(C(=O)NC2(C(=O)Nc3nc4ccccc4[nH]3)CC2)cc(C(C)(C)C)n1 [Compound 19, N-(1-(1H-benzo[d]imidazol-2-ylcarbamoyl)cyclopropyl)-2,6-di-tert-butylisonicotinamide] | 60.3 |  | 
CC(C)(C#N)c1ccc(C(=O)NC2(C(=O)NCc3cccc(C(F)(F)F)c3)Cc3ccccc3C2)cc1 [Compound 55, 2-(4-(2-cyanopropan-2-yl)benzamido)-N-(3-(trifluoromethyl)benzyl)-2,3-dihydro-1H-indene-2-carboxamide] | 89 | 100 | 
Cc1cnc(CNC(=O)C2(NC(=O)c3cc(C(C)(C)C)nc(C(C)(C)C)c3)CCCCC2)cn1 [Compound 81, 2,6-di-tert-butyl-N-(1-((5-methylpyrazin-2-yl)methylcarbamoyl)cyclohexyl)isonicotinamide] | 87.8 | 93.3 | 0.0535
CC(C)(C)c1cc(CNC2(C(=O)NCc3ccccc3)CCCCC2)cc(C(C)(C)C)c1 [Compound 57, N-benzyl-1-(3,5-di-tert-butylbenzylamino)cyclohexanecarboxamide] | 99.8 | 101 | 0.868
CC(C)(C)c1cc(C(=O)NC2(C(=O)Nc3cccc(C(F)(F)F)c3)CCOCC2)ccn1 [Compound 120, 2-tert-butyl-N-(4-(3-(trifluoromethyl)phenylcarbamoyl)tetrahydro-2H-pyran-4-yl)isonicotinamide] | 61.2 |  | 
COc1ccc(C(=O)NC2(C(=O)NCc3cc(C(C)(C)C)c(OC)c(C(C)(C)C)c3)CCCCC2)cc1 [Compound 74, N-(1-(3,5-di-tert-butyl-4-methoxybenzylcarbamoyl)cyclohexyl)-4-methoxybenzamide] | 98.9 | 106 | 0.0558
CC(C)(C)c1cc(NC(=O)C2(NCc3ccc(F)cc3F)CCCCC2)cc(C(C)(C)C)c1 [Compound 42, N-(3,5-di-tert-butylphenyl)-1-(2,4-difluorobenzylamino)cyclohexanecarboxamide] | 70.6 | 80.2 | 
